From US9936701B2, “Herbicidal compounds” (Syngenta Participations AG, priority 2013, dated 2018) come the findings set out here.

Assay [1] has as its system a variety of test species. Nature of the assay: Post-emergence herbicidal activity (glasshouse, sprayed after 8 days cultivation, evaluated after 13 days). Format: in vivo. More on the design: key: 5=total damage to plant; 0=no damage to plant. The note with it: rate 1000 g/Ha, scale 0-5. The gist of the method: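 Damage rating 0 (none) to 5 (total), assessed 13 days after spraying. Plants received the compound in acetone/water 50:50 with 0.5% Tween 20 at 8 days post-sowing, then were kept at 24/16 °C, 14 h photoperiod, 65% RH.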

Assay [2] concerns a variety of test species. Nature of the assay: Pre-emergence herbicidal activity (glasshouse, sprayed one day after sowing, evaluated after 13 days). Format: in vivo. Set-up: key: 5=total damage to plant; 0=no damage to plant. The note with it: application pre-emergence, rate 1000 g/Ha, scale 0-5. The gist of the method:
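Sow in pots of standard soil; after one day under glasshouse conditions, spray compound (acetone/water 50:50 formulation, 0.5% Tween 20, diluted in water). Grow on at 24/16 °C, 14 h light, 65% humidity with twice-daily watering. Assess at 13 days, 0–5 damage scale.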

`CCC(=O)OC1C(C)=C(Cl)C(=O)N1c1cc(C(C)(CC)CC#N)on1` (stereo not drawn) [A99]: in assay [1], the “ABUTH (Abutilon theophrasti) damage score, application post-emergence” value (shortened to “ABUTH … application post-emergence”) was determined as 5; the “ALOMY (Alopecurus myosuroides) damage score, application post-emergence” value (from here on “ALOMY … application post-emergence”) turned out to be 5; the “AMARE (Amaranthus retroflexus) damage score, application post-emergence” value (“AMARE … application post-emergence” for short) came out at 5; the “ECHCG (Echinochloa crus-galli) damage score, application post-emergence” value (“ECHCG … application post-emergence” for short) is 5. Besides, in assay [1], the “SETFA (Setaria faberi) damage score, application post-emergence” value (“SETFA (Setaria faberi) damage score” for short) is reported as 5 and the “ZEAMX (Zea mays) damage score, application post-emergence” value (from here on “ZEAMX (Zea mays) damage score”) is listed as 5. For the same compound, in assay [2], the “Pre-emergence herbicidal damage score, ABUTH” value is 5; the “Pre-emergence herbicidal damage score, ALOMY” value is recorded as 4; the “Pre-emergence herbicidal damage score, AMARE” value is listed as 5; the “Pre-emergence herbicidal damage score, ECHCG” value worked out at 5. Moreover, in assay [2], the “Pre-emergence herbicidal damage score, SETFA” value turned out to be 5 and the “Pre-emergence herbicidal damage score, ZEAMX” value is listed as 3.
Regarding `COc1ccc(OC(=O)OC2C(C)=C(Cl)C(=O)N2c2cc(C(C)(C)C)on2)cc1` (stereo not drawn) [A86], in assay [1], the “ABUTH … application post-emergence” value was 2; the “ALOMY … application post-emergence” value stood at 3; the “AMARE … application post-emergence” value is given as 5; the “ECHCG … application post-emergence” value worked out at 2. Moreover, in assay [1], the “SETFA (Setaria faberi) damage score” value came to 3 and the “ZEAMX (Zea mays) damage score” value came to 0. In addition, in assay [2], the “Pre-emergence herbicidal damage score, ABUTH” value was found to be 3; the “Pre-emergence herbicidal damage score, ALOMY” value amounted to 3; the “Pre-emergence herbicidal damage score, AMARE” value came out at 5; the “Pre-emergence herbicidal damage score, ECHCG” value worked out at 2. Further, in assay [2], the “Pre-emergence herbicidal damage score, SETFA” value is listed as 2 and the “Pre-emergence herbicidal damage score, ZEAMX” value is listed as 1.
On to `C=COC(=O)OC1C(C)=C(Cl)C(=O)N1c1cc(C(C)(C)C)on1` (stereo not drawn) [A83], for which, in assay [1], the “ABUTH … application post-emergence” value came out at 5; the “ALOMY … application post-emergence” value was 5; the “AMARE … application post-emergence” value turned out to be 5; the “ECHCG … application post-emergence” value is 5. Also, in assay [1], the “SETFA (Setaria faberi) damage score” value is listed as 5 and the “ZEAMX (Zea mays) damage score” value amounted to 4. Further, in assay [2], the “Pre-emergence herbicidal damage score, ABUTH” value is reported as 5; the “Pre-emergence herbicidal damage score, ALOMY” value was found to be 4; the “Pre-emergence herbicidal damage score, AMARE” value is given as 5; the “Pre-emergence herbicidal damage score, ECHCG” value is 5. In assay [2], the “Pre-emergence herbicidal damage score, SETFA” value amounted to 5 and the “Pre-emergence herbicidal damage score, ZEAMX” value is 4.
With `CC(C)C1=C(Cl)C(=O)N(c2cc(C(C)(C)C)on2)C1O` (stereo not drawn) [A18], in assay [1], the “ABUTH … application post-emergence” value worked out at 5; the “ALOMY … application post-emergence” value came out at 5; the “AMARE … application post-emergence” value was 4; the “ECHCG … application post-emergence” value was found to be 5. For the same compound, in assay [1], the “SETFA (Setaria faberi) damage score” value is 5 and the “ZEAMX (Zea mays) damage score” value stood at 3. For the same compound, in assay [2], the “Pre-emergence herbicidal damage score, ABUTH” value was found to be 4; the “Pre-emergence herbicidal damage score, ALOMY” value stood at 4; the “Pre-emergence herbicidal damage score, AMARE” value was determined as 1; the “Pre-emergence herbicidal damage score, ECHCG” value was 2. In assay [2], the “Pre-emergence herbicidal damage score, SETFA” value is given as 3 and the “Pre-emergence herbicidal damage score, ZEAMX” value was determined as 1.
Regarding `CC(C)(C)c1cc(N2C(=O)C(Cl)=C(C3CC3)C2O)no1` (stereo not drawn) [A15], in assay [1], the “ABUTH … application post-emergence” value is on record as 5; the “ALOMY … application post-emergence” value amounted to 4; the “AMARE … application post-emergence” value was found to be 5; the “ECHCG … application post-emergence” value was found to be 5. For the same compound, in assay [1], the “SETFA (Setaria faberi) damage score” value was determined as 5 and the “ZEAMX (Zea mays) damage score” value amounted to 3. Besides, in assay [2], the “Pre-emergence herbicidal damage score, ABUTH” value is 5; the “Pre-emergence herbicidal damage score, ALOMY” value amounted to 2; the “Pre-emergence herbicidal damage score, AMARE” value turned out to be 5; the “Pre-emergence herbicidal damage score, ECHCG” value is recorded as 4. Besides, in assay [2], the “Pre-emergence herbicidal damage score, SETFA” value worked out at 3 and the “Pre-emergence herbicidal damage score, ZEAMX” value worked out at 2.
